This passage reports IC50 and EC50 results from patent US20230066268A1, “INDAZOLE DERIVATIVES AND METHODS OF USE THEREOF FOR THE TREATMENT OF HERPES VIRUSES” (Merck Sharp & Dohme LLC, priority 2019, published 2023).

Structures are written as SMILES. Where two headings read alike, the source gives them in different places.

The term IC50 denotes the point on the concentration scale where inhibition reaches its midpoint. The term EC50 denotes the concentration needed to bring the measured effect to its halfway point.

Assay [1] has as its target T1, Human cytomegalovirus DNA polymerase (Human cytomegalovirus, UniProt P08546).
T1 construct: made in house; host or cells: SF21 insect cells (baculovirus vector)
Nature of the assay: CMV polymerase assay (AlphaLISA). It counts as biochemical. The settings on record: polymerase assay of Example 27, HCMV polymerase 0.2 nM. The procedure:
(§1) CMV and VZV Polymerase Assays
(§2) Human cytomegalovirus and varicella zoster virus DNA polymerases were expressed via baculovirus vector in SF21 cells and purified. Heterodimeric nucleic acid substrate used in the herpesvirus polymerase reactions were generated by annealing a 59-mer template to a 17-mer digoxigenin-labeled primer. Polymerase (HCMV final concentration of 0.2 nM; VZV final concentration of 0.4 nM) was combined with an inhibitor compound or DMSO in assay buffer (10 mM HEPES, pH 7.5, 25 mM KCl, 25 mM NaCl, 5 mM MgCl2, 5% glycerol, 0.67 mg/mL bovine serum albumin, and 1 mM tris(2-carboxyethyl)phosphine)), and this mixture was pre-incubated for 30 minutes at room temperature in 384-well microtiter plates. The polymerization reaction was initiated by the addition of template/primer substrate (final concentration: 1.6 nM) and dNTPs (final concentration: 24 nM dCTP, 24 nMdGTP, 16 nM dATP, 16 nM dTTP, and 0.8 nM biotin-dUTP). After a 60 minute incubation period at 37° C., the reactions were terminated using quench buffer (25 mM HEPES pH 7.5, 100 mM NaCl, 0.25% Tween-20, 12 mM EDTA, and 1 mg/mL bovine serum albumin). Incorporation of biotinylated UTP was detected with 2.5-5 μg/mL anti-DIG AlphaLISA acceptor beads and 5-10 μg/mL streptavidin AlphaLISA donor beads (PerkinElmer). Compound effects were normalized to the window defined by the controls (DMSO only and pre-quenched wells) and were fit using a 4-parameter algorithm to report an IC50.
On the technique in general: Bead proximity is the source of the signal in Alpha formats.

Assay [2] addresses T2, varicella zoster virus DNA polymerase (Varicella-zoster virus, UniProt P09252).
T2 construct: made in house; host or cells: SF21 insect cells (baculovirus vector)
Nature of the assay: VZV polymerase assay (AlphaLISA). Format: biochemical. The settings on record: polymerase assay of Example 27, VZV polymerase 0.4 nM. As to the method: as §1, §2

Assay [3] relates to HCMV Strain AD169 in MRC-5 cells. Put plainly: CMV cell assay. It counts as cell-based. The procedure:
(§3) MRCS and Vero cells were obtained from ATCC and were maintained at 37° C./5% CO2/90% relative humidity in Minimal Essential Medium with 10% fetal bovine serum, […], 100 units/mL penicillin and 100 ug/mL streptomycin. Assay plates were prepared by dispensing compounds dissolved in DMSO into wells of 384 well collagen-coated plates using an ECHO acoustic dispenser. Each test compound was tested in a 10-point, serial 3-fold dilution. Controls included uninfected cells and infected cells treated only with DMSO. Assays were initiated by mixing selected cells, in suspension, with virus, and dispensing 50 μl/well infected cells to pre-plated compounds. Plates were incubated at 37° C./5% CO2/90% relative humidity for ˜72 hours to permit genomic replication, and infected cells were lysed by the addition of an equal volume of lysis buffer (10 mM Tris-HCl, pH8, 50 mM KCl, 2 mM MgCl2, 0.45% NP-40, 0.45% Tween-20, and 100 μg/mL proteinase K). An aliquot of the lysate was then transferred to a 384-well PCR plate and incubated at 56° C. for 1 hour, and then at 95° C. for 10 minutes. Levels of a viral gene were measured in 10 ul qPCR assays using TaqMan® Gene Expression Master Mix (Applied Biosystems) and an 7900HT Fast Real-Time PCR System with 384-Well Block Module. 7-point, serial 10-fold dilutions of a plasmid standard were run on each plate to generate a standard curve, and genome copies numbers were calculated by plotting experimental Ct onto linear regression of the standard curve. Compound effects on viral genome copy number were normalized to the window defined by the controls. Calculated % effects were fit using a 4-parameter algorithm, and EC50 was reported.
(§4) HCMV: Strain AD169 was assayed in MRC-5 cells and was used at 0.05-0.1 pfu/cell. The assays were performed in either growth media or in the same media with 50% fetal bovine serum. Primer-probe set was Thermo Fisher Assay ID=AIFATFK. HSV-1: Strain F was assayed in Vero or MRCS cells and was used at 0.0005-0.004 pfu/cell in growth medium. Primer-probe set was Thermo Fisher Assay ID=AIBJZIB. HSV-2: Strain G was assayed in Vero or MRCS cells and was used at 0.004-0.4 pfu/cell in growth medium. Primer-probe set was Thermo Fisher Assay ID=AICSXOJ.

The subject of assay [4] is HSV-1 Strain F in Vero or MRCS cells. Put plainly: Viral qPCR assay, HSV-1. It counts as cell-based. The settings on record: read-out: HSV1 Cell (EC50), values marked *. As to the method:
as §3, §4
(In general: In qPCR the cycle at which signal appears reflects the starting amount.)

In assay [5] the test system is HSV-2 Strain G in Vero or MRCS cells. Put plainly: Viral qPCR assay, HSV-2. It counts as cell-based. The settings on record: read-out: HSV2 Cell (EC50), values marked *. The procedure:
as §3, §4

Assay [6] deals with HSV-1, strain F in Vero cells. Nature of the assay: HSV CPE assay, HSV-1. Format: cell-based. As to the method:
(§5) Vero cells were maintained at 37° C./5% CO2/90% relative humidity in Dulbecco's Modified Eagle's Medium with 10% fetal bovine serum, […], 100 units/mL penicillin and 100 ug/mL streptomycin. For this assay, Vero cells (maintained at 37° C./5% CO2/90% relative humidity in Dulbecco's Modified Eagle's Medium with 10% fetal bovine serum, […], 100 units/mL penicillin and 100 μg/mL streptomycin) were seeded in 96-well microtiter plates and incubated for about 15 hours. They were then infected with HSV-1, strain F, or with HSV-2, strain G, at a multiplicity of infection known to result in 85-95% loss of cell viability during the assays, in the same media with 2% fetal bovine serum. Test compounds were dissolved in DMSO, and 6 point serial 10-fold dilutions in DMSO were prepared. Test compounds were added to infected cells, and the plates were incubated at 37° C./5% CO2/90% relative humidity for 5 days. Each plate contains cell control wells (cells only), virus control wells (cells plus virus), drug colorimetric control wells (drug only), background control wells (media only) and experimental wells (drug plus cells plus virus). Cytoprotection was assessed by the addition of Celltiter®96 Reagent (Promega, Madison, Wis.), according to manufacturer's recommendations. % cytopathic effect (CPE) reduction was calculated and IC50 (concentration inhibition virus replication by 50%) was reported.

Assay [7] deals with HSV-2, strain G in Vero cells. Put plainly: HSV CPE assay, HSV-2. Format: cell-based. As to the method: as §5
Setting [8] is: Human betaherpesvirus 5, AD169, MRC5, read-out: CMV Cell^b (EC50), footnote b: assay described in Example 25.
Setting [9] is: Human betaherpesvirus 5, AD169, MRC5, footnote b: assay described in Example 25, read-out: CMV Cell^b (EC50).
The mark [10] stands for this setting: Human alphaherpesvirus 1, starred values: viral qPCR assay of Example 26, ~72 hours, Vero or MRCS cells.
The mark [11] stands for this setting: Human alphaherpesvirus 2, starred values: viral qPCR assay of Example 26, ~72 hours, Vero or MRCS cells.
Setting [12] is: Human alphaherpesvirus 1, 120 h, unstarred values: CPE assay of Example 25, Vero cells, 5 days, read-out: HSV1 Cell^b (EC50).
[13] abbreviates: Human alphaherpesvirus 2, 120 h, unstarred values: CPE assay of Example 25, Vero cells, 5 days, read-out: HSV2 Cell^b CPE(EC50).

T1 sequence (P08546 whole entry): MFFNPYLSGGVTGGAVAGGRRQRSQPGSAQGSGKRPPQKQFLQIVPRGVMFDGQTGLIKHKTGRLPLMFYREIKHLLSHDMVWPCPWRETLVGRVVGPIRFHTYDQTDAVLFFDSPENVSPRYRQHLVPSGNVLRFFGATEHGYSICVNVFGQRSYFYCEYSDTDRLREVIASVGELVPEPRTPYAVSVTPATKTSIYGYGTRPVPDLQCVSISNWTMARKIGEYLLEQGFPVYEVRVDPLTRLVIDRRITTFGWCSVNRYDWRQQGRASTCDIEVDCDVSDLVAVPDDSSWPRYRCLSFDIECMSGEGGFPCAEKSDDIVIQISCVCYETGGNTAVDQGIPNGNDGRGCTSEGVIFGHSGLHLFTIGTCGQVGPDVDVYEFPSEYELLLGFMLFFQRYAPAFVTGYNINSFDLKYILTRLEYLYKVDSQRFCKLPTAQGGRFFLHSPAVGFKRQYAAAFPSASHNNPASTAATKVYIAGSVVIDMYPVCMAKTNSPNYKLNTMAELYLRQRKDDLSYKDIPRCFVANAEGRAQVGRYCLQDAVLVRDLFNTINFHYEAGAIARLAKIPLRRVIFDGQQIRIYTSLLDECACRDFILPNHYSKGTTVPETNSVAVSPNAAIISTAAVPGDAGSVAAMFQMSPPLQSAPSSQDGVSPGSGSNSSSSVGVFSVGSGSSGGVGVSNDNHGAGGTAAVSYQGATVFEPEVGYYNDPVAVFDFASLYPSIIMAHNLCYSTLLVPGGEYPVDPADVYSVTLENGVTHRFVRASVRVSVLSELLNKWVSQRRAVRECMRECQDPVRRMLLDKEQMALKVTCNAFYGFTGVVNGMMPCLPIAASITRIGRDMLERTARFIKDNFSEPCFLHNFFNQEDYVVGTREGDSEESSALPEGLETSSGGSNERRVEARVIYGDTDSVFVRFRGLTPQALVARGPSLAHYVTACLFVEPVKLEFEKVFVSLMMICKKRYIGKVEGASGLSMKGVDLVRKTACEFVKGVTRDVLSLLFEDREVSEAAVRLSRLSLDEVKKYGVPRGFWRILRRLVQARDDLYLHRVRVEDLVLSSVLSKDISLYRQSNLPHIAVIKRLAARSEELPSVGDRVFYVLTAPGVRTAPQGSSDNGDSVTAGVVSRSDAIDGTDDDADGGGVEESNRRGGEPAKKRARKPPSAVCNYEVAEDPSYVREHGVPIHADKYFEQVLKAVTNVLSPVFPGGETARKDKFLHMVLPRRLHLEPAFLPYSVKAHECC
T2 sequence (P09252 whole entry): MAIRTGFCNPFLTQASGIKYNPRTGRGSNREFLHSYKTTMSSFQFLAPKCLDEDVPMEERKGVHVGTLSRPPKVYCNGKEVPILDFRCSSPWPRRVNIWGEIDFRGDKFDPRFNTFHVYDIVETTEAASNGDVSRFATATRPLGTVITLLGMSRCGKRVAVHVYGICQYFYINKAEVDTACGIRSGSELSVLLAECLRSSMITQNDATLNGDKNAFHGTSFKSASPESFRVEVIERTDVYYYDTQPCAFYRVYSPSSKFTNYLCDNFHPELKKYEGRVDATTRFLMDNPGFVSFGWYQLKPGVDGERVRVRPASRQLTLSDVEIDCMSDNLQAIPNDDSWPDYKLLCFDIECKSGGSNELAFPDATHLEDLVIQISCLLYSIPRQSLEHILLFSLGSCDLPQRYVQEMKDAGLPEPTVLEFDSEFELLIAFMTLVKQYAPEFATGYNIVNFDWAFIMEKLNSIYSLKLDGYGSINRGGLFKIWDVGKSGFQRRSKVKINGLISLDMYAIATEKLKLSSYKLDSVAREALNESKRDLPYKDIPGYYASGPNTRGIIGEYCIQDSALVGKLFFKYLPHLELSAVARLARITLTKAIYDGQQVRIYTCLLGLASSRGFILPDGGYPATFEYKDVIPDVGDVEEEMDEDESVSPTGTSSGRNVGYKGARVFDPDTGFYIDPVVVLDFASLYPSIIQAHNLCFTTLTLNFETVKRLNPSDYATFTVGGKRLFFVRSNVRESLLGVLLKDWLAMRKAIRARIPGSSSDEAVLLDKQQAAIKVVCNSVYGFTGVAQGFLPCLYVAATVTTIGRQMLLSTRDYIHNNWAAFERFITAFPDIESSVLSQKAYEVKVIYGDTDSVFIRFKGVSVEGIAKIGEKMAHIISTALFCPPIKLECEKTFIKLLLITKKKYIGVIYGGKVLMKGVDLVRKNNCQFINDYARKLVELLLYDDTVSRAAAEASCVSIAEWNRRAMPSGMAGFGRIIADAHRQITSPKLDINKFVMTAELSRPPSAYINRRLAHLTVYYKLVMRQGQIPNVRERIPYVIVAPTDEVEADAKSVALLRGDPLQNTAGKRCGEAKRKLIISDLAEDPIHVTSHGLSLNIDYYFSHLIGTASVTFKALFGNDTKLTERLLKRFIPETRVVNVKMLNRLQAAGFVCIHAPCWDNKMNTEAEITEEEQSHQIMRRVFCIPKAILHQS

Regarding `NCCn1nc(C(=O)NCc2ccc(Cl)cc2)c2ccc(NCc3cnns3)c(Cl)c21` [Compound 3], the IC50 came to 9.6 nM in assay [1] (CMV^a (IC50)) and 2.9 nM in assay [2] (VZV^a (IC50)). For the same compound, the EC50 came out at 71 nM in assay [3] (setting [8]); 85 nM in assay [4] (Human alphaherpesvirus 1, Vero, 72 h); 170 nM in assay [5] (Human alphaherpesvirus 2, Vero, 72 h).

`Cn1nc(C(=O)NCc2ccc(Cl)cc2)c2c3c(ccc21)C(N1CCOCC1)CC3` (stereo not shown) [Compound 17]: the IC50 in assay [1] (read-out: CMV^a (IC50)) is 150 nM; in assay [2] (read-out: VZV^a (IC50)), 14 nM. In addition, the EC50 in assay [3] (setting [9]) stood at 1000 nM; in assay [4] (setting [10]), 310 nM; in assay [5] (setting [11]), 350 nM.

With `Cc1c(CN2CCOCC2)cc(C)c2c1c(C(=O)NCc1ccc(Cl)cc1)nn2C` [Compound 19], the figures for the IC50 in assay [1] (read-out: CMV^a (IC50)) and in assay [2] (read-out: VZV^a (IC50)) were 280 nM and 66 nM, respectively. Further, the EC50 in assay [3] (setting [9]) came to 6100 nM; in assay [6] (setting [12]) it was 1800 nM; in assay [7] (setting [13]), 5300 nM.

As for `Cn1nc(C(=O)NCc2ccc(Cl)cc2)c2c(O)c(CN3CCOCC3)ccc21` [Compound 20], the IC50 came out at 390 nM in assay [1] (read-out: CMV^a (IC50)) and 66 nM in assay [2] (read-out: VZV^a (IC50)). The EC50 in assay [3] (setting [9]) is > 9900 nM; in assay [6] (setting [12]), > 40000 nM; in assay [7] (setting [13]), > 40000 nM.

For `Cn1nc(C(=O)NCc2ccc(Cl)cc2)c2c(F)c(CN3CCOCC3)ccc21` [Compound 21], the IC50 in assay [1] (read-out: CMV^a (IC50)) was found to be 480 nM; in assay [2] (read-out: VZV^a (IC50)), 180 nM. Further, the results for the EC50 in assay [3] (setting [9]), in assay [6] (setting [12]) and in assay [7] (setting [13]) were 7200 nM, 2200 nM and 3600 nM, respectively.

In the case of `Cc1c(N2CCn3nncc3C2)ccc2c(C(=O)NCc3ccc(C#N)cc3)nn(C[C@H](C)NC(=O)C(C)C)c12` [Compound 32], the IC50 was 4.2 nM in assay [1] (CMV^a (IC50)) and 1.8 nM in assay [2] (VZV^a (IC50)). Further, the EC50 in assay [3] (setting [8]) stood at 60 nM; in assay [6] (Human alphaherpesvirus 1, Vero, 120 h, read-out: HSV1 Cell^b (EC50), unstarred values: CPE assay of Example 25, Vero cells, 5 days) it was 14000 nM; in assay [7] (Human alphaherpesvirus 2, Vero, 120 h, read-out: HSV2 Cell^b CPE(EC50), unstarred values: CPE assay of Example 25, Vero cells, 5 days), 13000 nM.

Regarding `Cn1nc(C(=O)NCc2ccc(Cl)cc2)c2cc(C[C@H]3COC(=O)N3)ccc21` [Compound 33], the IC50 in assay [1] (read-out: CMV^a (IC50)) turned out to be 78 nM; in assay [2] (read-out: VZV^a (IC50)), 35 nM. In addition, the values for the EC50 in assay [3] (setting [9]), in assay [4] (setting [10]) and in assay [5] (setting [11]) were 160 nM, 200 nM and 110 nM, respectively.

Regarding `Cn1nc(C(=O)NCc2ccc(Cl)cc2)c2cc(C[C@H]3CCC(=O)N3)ccc21` [Compound 34], the IC50 was determined as 67 nM in assay [1] (read-out: CMV^a (IC50)) and 24 nM in assay [2] (read-out: VZV^a (IC50)). In addition, the EC50 came to 330 nM in assay [3] (setting [9]), 220 nM in assay [4] (setting [10]) and 240 nM in assay [5] (setting [11]).
